We go through 3 molecules from patent publication US9457030B2, “Compositions and methods for the treatment of juvenile neuronal ceroid lipofuscinosis and related disorders” (BOARD OF REGENTS OF THE UNIVERSITY OF NEBRASKA, priority 2012, dated 2016).

Entries after “also recorded” stand apart in the source; their conditions may differ.

In assay [1] the test system is CLN3^Δex7/8 microglia. In words: Intracellular cAMP in primary microglia. It is filed as cell-based, mouse. The following applies: rolipram 10 μM in FIG. 23, 24 hours post-treatment. The protocol: FIG. 23. CLN3^Δex7/8 microglia display reduced intracellular cAMP constitutively, which is enhanced by the PDE-4 inhibitors. Primary microglia were isolated from the brains of CLN3 WT or CLN3 mutant mice, whereupon cells were pre-treated with the phosphodiesterase-4 inhibitor rolipram (Rol; 10 μM) for 1 hour followed by a combination of molecules known to be elevated in the JNCL brain (20 μM ceramide+neuron lysates) for 24 hours. Intracellular cAMP levels were determined at 24 hours post-treatment (*, p<0.05).

The test system of a further assay is astrocytes. The following applies: cited from earlier work.
Assay [2] has as its system CLN3^Δex7/8 microglia. Briefly: IL-1β and TNF-α production by primary microglia (ELISA). It counts as cell-based, mouse. The following applies: 1 hour pre-treatment, then 20 μM ceramide+neuron lysates for 24 hours, CLN3 mutant microglia. The protocol: (§1) FIG. 21. PDE-4 inhibitors attenuate IL-1β and TNF-α production in CLN3^Δex7/8 microglia. Primary microglia were isolated from the brains of CLN3 WT or CLN3 mutant mice, whereupon cells were pre-treated with various concentrations of the phosphodiesterase-4 inhibitor propentofylline (PPF) for 1 hour followed by a combination of molecules known to be elevated in the JNCL brain (20 μM ceramide+neuron lysates) for 24 hours. Conditioned medium was collected at 24 hours post-treatment and IL-1β and TNF-α expression was determined by ELISA. **, p<0.01 for WT versus CLN3 mutant microglia; #, p<0.05; ##, p<0.01; ###, p<0.001 for CLN3 mutant microglia treated with PPF versus vehicle control.
as §1, with “22.” for “21.”, “rolipram (Rol)” for “propentofylline (PPF)”, “p<0.05;” for “p<0.05; ##, p<0.01;”, “Rol” for “PPF”
FIG. 24. PDE-4 inhibitors attenuate TNF-α production in CLN3^Δex7/8 microglia. Primary microglia were isolated from the brains of CLN3 WT or CLN3 mutant mice, whereupon cells were pre-treated with various concentrations of the phosphodiesterase-4 inhibitor roflumilast (Rof) for 1 hour followed by a combination of molecules known to be elevated in the JNCL brain (20 μM ceramide+neuron lysates) for 24 hours. Conditioned medium was collected at 24 hours post-treatment and TNF-α expression was determined by ELISA. **, p<0.01 for WT versus CLN3 mutant microglia.
In these experiments, primary microglia are isolated from the brains of CLN3^Δex7/8 and WT mice^8,25-27. Microglia are exposed to previously optimized concentrations of glutamate (50 μM), ATP (5 mM), ceramide (20-100 μM), neuronal lysate (1:2 or 1:5 dilution), or LPS+ATP as a positive control (100 ng/ml and 5 mM, respectively) for 24 hours, whereupon interleukin-1β (IL-1β) and tumor necrosis factor-α (TNF-α) expression are quantitated by ELISA. These cytokines were selected for analysis because they have been directly implicated in contributing to microglia-induced neuronal cell death^14,28 and also because they intersect with oxidative pathways described herein. […] In addition, CLN3 loss is examined to determine if the loss augments caspase-1 activity, a key inflammasome component that senses oxidative stress and lysosomal damage, resulting in IL-1β cleavage and secretion by microglia^8. Here, CLN3^Δex7/8 and WT microglia are exposed to the same stimuli described above, followed by incubation with the FLICA reagent (Immunochemistry Technologies LLC), a caspase-1 substrate that emits fluorescence when cleaved by the active enzyme^29. […] Indeed, studies support this expectation because caspase-1 activity was elevated in CLN3^Δex7/8 microglia compared to WT cells (FIG. 3).

For the molecule `CCCn1cnc2c1c(=O)n(CCCCC(C)=O)c(=O)n2C` [propentofylline], the “Intracellular cAMP levels” value with CLN3^Δex7/8 microglia [1] is reported as “increased”. For the same molecule, in the assay on astrocytes, the “glutamate transporter expression in astrocytes” value is listed as “increase glutamate transporter expression in astrocytes”. For the same molecule, the results for the IL-1β production result in the assay with CLN3^Δex7/8 microglia [2] and in the assay with CLN3^Δex7/8 microglia [2] (listed as PPF) were “attenuate” and “significantly reduced IL-1β release”, respectively. Also, the TNF-α production entry in the assay with CLN3^Δex7/8 microglia [2] was “attenuate”.
Regarding `O=C(Nc1c(Cl)cncc1Cl)c1ccc(OC(F)F)c(OCC2CC2)c1` [roflumilast], in the assay on CLN3^Δex7/8 microglia [2], the IL-1β production entry is given as “inhibit” and the TNF-α production entry is “attenuate”.
On to `COc1ccc(C2CNC(=O)C2)cc1OC1CCCC1` (stereo not shown) [rolipram], for which, in the assay with CLN3^Δex7/8 microglia [1], the “Intracellular cAMP levels” value is on record as “enhanced; also recorded: increased”. In addition, in the assay with CLN3^Δex7/8 microglia [2], the IL-1β production entry is on record as “attenuate; also recorded: significantly reduced IL-1β release” and the TNF-α production entry is listed as “attenuate”.
